Results: patent publication US20240251792A1, “WEED CONTROL METHOD” (SYNGENTA CROP PROTECTION AG, priority 2021, published 2024)
Where two headings read alike, the source gives them in different places.

Tests used:
Type in all cases: in vivo
weeds and/or crops = experiment: Post-emergence biological efficacy (Table 4); details: 312 h, 1000 g/ha, evaluated after 13 days
Method in brief: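 Weeds and crops were grown 14 days in a glasshouse, then sprayed post-emergence with compound formulated in acetone/F50 and diluted in 0.2% Genapol X080 to the final dose. Damage was scored after 13 days on a 0–100 scale, where 100 is total damage.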

ECHCG = experiment: Pre-emergence biological efficacy (Table 3); details: Echinochloa crus-galli, 312 h, 1000 g/ha, after 13 days, read-out: evaluation (100=total damage to plant; 0=no damage to plant)
Method in brief: (§1)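 Seeds sown in standard soil and sprayed one day later with compound formulated in acetone/AMA solvent-emulsifier, diluted in 0.2% Genapol X080 to the final dose. Plants grown in glasshouse at 24/18° C, 15 h light, 50% humidity. Damage scored after 13 days (0=none, 100=total).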

AMAPA = experiment: Pre-emergence biological efficacy (Table 3); details: 312 h, 1000 g/ha, after 13 days, read-out: evaluation (100=total damage to plant; 0=no damage to plant)
Method in brief: as §1

SETFA = experiment: Pre-emergence biological efficacy (Table 3); details: Setaria faberi, 312 h, 1000 g/ha, after 13 days, read-out: evaluation (100=total damage to plant; 0=no damage to plant)
Method in brief: as §1

IPOHE = experiment: Pre-emergence biological efficacy (Table 3); details: Ipomoea hederacea, 312 h, 1000 g/ha, after 13 days, read-out: evaluation (100=total damage to plant; 0=no damage to plant)
Method in brief: as §1

AMARE = experiment: Pre-emergence biological efficacy (Table 3); details: Amaranthus retroflexus, 312 h, 1000 g/ha, after 13 days, read-out: evaluation (100=total damage to plant; 0=no damage to plant)
Method in brief: as §1

ZEAMX = experiment: Pre-emergence biological efficacy (Table 3); details: 312 h, 1000 g/ha, after 13 days, read-out: evaluation (100=total damage to plant; 0=no damage to plant)
Method in brief: as §1

[1] = AMAPA, read-out: damage to plant AMAPA (100=total damage; 0=no damage)
[2] = ZEAMX, read-out: damage to plant ZEAMX (100=total damage; 0=no damage)
[3] = Amaranthus retroflexus, AMARE, read-out: damage to plant AMARE (100=total damage; 0=no damage)
[4] = Echinochloa crus-galli, ECHCG, read-out: damage to plant ECHCG (100=total damage; 0=no damage)
[5] = Ipomoea hederacea, IPOHE, read-out: damage to plant IPOHE (100=total damage; 0=no damage)
[6] = Setaria faberi, SETFA, read-out: damage to plant SETFA (100=total damage; 0=no damage)

| SMILES | pest or weed control at 1000 g/ha (weeds and/or crops; [1]) [%] | pest or weed control at 1000 g/ha (weeds and/or crops; [2]) [%] | pest or weed control at 1000 g/ha (weeds and/or crops; [3]) [%] | pest or weed control at 1000 g/ha (weeds and/or crops; [4]) [%] | pest or weed control at 1000 g/ha (weeds and/or crops; [5]) [%] | pest or weed control at 1000 g/ha (weeds and/or crops; [6]) [%] | pest or weed control at 1000 g/ha (ECHCG) [%] | pest or weed control at 1000 g/ha (AMAPA) [%] | pest or weed control at 1000 g/ha (SETFA) [%] | pest or weed control at 1000 g/ha (IPOHE) [%] | pest or weed control at 1000 g/ha (AMARE) [%] | plant injury at 1000 g/ha (ZEAMX) [%] |
| --- | --- | --- | --- | --- | --- | --- | --- | --- | --- | --- | --- | --- |
| COc1cccc(C(F)(F)C(=O)O)c1F [Compound 1-190, 2,2-Difluoro-2-(2-fluoro-3-methoxy-phenyl)acetic acid] | 80 | 10 | 90 | 40 | 60 | 20 | 0 | 80 | 20 | 90 | 80 | 0 |
| N#Cc1cccc(C(F)(F)C(=O)O)c1F [Compound 1-192, 2-(3-Cyano-2-fluoro-phenyl)-2,2-difluoro-acetic acid] | 80 | 20 | 80 | 30 | 70 | 60 | 0 | 70 | 50 | 70 | 80 | 0 |
| COc1cccc(C(F)(F)C(=O)O)c1C [Compound 1-242, 2,2-Difluoro-2-(3-methoxy-2-methyl-phenyl)acetic acid] | 80 | 10 | 80 | 10 | 70 | 10 | 0 | 70 | 10 | 60 | 70 | 10 |
| Cc1c(C#N)cccc1C(F)(F)C(=O)O [Compound 1-244, 2-(3-Cyano-2-methyl-phenyl)-2,2-difluoro-acetic acid] | 90 | 60 | 90 | 60 | 70 | 70 | 50 | 80 | 90 | 90 | 90 | 40 |
| N#Cc1c(F)cccc1C(F)(F)C(=O)O [Compound 1-261, 2-(2-Cyano-3-fluoro-phenyl)-2,2-difluoro-acetic acid] | 70 | 20 | 70 | 0 | 40 | 30 | 10 | 50 | 10 | 40 | 40 | 0 |
| O=C(O)C(F)(F)c1cccc2c1CCO2 [Compound 1-420, 2-(2,3-Dihydrobenzofuran-4-yl)-2,2-difluoro-acetic acid] | 70 | 10 | 80 | 10 | 70 | 10 | 0 | 60 | 0 | 70 | 80 | 10 |
| O=C(O)C(F)(F)c1cccc(Cl)c1C1CC1 [Compound 1-428, 2-(3-Chloro-2-cyclopropyl-phenyl)-2,2-difluoro-acetic acid] | 90 | 10 | 90 | 10 | 90 | 0 | 0 | 90 | 0 | 80 | 80 | 0 |
